Source: US20220125042A1, “CRYOPROTECTANT AND/OR CRYOPRESERVANT COMPOSITION, METHODS AND USES THEREOF” (UNIVERSIDADE NOVA DE LISBOA, priority 2017, published 2022)

Columns and labels:
L929 cell lines = assay: Direct contact of NADES with cell culture, viability by MTS assay; type: cell-based; conditions: FIG. 3
Protocol: In an embodiment, the L929 cell lines were grown in DMEM (Sigma, USA), supplemented with 10% heat-inactivetes fetal bovine serum (FBS, Biochron AG, Germany) and 1% antibiotic-antimicotic (Gibco, USA). The cells were cultured in a humidified atmosphere of 37° C., with 5% CO2.
In an embodiment, the viability of the systems prepared was measured using a method of direct contact with cells (Direct−contact of NADES with cell culture). The cells were seeded onto a 96-well plate for 24 h in the total 1×10^4 cells/well. After 24 h, the medium was removed and extracts with different percentage of NADES, in particular 1%, 5%, 10% and 20% in culture medium were added. The viability of the cells cultured with these extracts was determined by MTS assay, after 24 h and 72 h.
In an embodiment, the MTS cell viability assay was conducted as follows: the influence of the cryopreservants was determined by MTS assay (Cell Titer 96 Aqueous One Solution Cell Proliferation Assay, Promega, USA) after 24 h and 72 h of culture. […] The absorbance was measured at a wavelength of 490 nm using a microplate spectrometer (Synergy HT, Bio-TEK, USA). To the results of absorbance was subtracting the absorbance obtained by blank (culture medium MTS with MTS reagent). […]

L929 cell line = assay: Cryopreservation (freezing/thawing) of cells with cryoprotective agent; morphology, live-dead, DAPI-Phalloidin and MTS viability after thawing; type: cell-based; conditions: 10% cryopreservant, FIG. 4
Protocol: In an embodiment, the cells were freezed and thawed, in particular the cells were collected by centrifugation (300 rpm for 5 min) and suspended in cool mixture with FBS and cryopreservant (DMSO or Treh-Gly; 5% and 10% cryopresenvant in the FBS). The cells and freezing medium were dispensed into cryotubes (Nunc) (1×10^6 cells/1 mL), and immediately placed into a freezing box (Mr. Frosty) at −20° C. for 2 h. Latter they were placed for 24 h at −80° C. and then the cryotubes were placed in liquid nitrogen. The cells were frozen for 1, 2 and 3 months. As control trehalose and glycerol alone were used in the same concentration. […] In an embodiment, the MTS cell viability assay was conducted as follows: the influence of the cryopreservants was determined by MTS assay (Cell Titer 96 Aqueous One Solution Cell Proliferation Assay, Promega, USA) after 24 h and 72 h of culture. […] The absorbance was measured at a wavelength of 490 nm using a microplate spectrometer (Synergy HT, Bio-TEK, USA). To the results of absorbance was subtracting the absorbance obtained by blank (culture medium MTS with MTS reagent). In an embodiment, the live/dead cell viability assay was used (calcein AM/propidium iodide (PI) staining) (n=5 samples per well) to evaluated cell viability. […] In an embodiment, in vitro biological evaluation of NADES performance as cryopreservant was assessed using the L929 cell line. […]

Row | Structure (SMILES) | cell viability in contact with cells (L929 cell lines; 10% and 20% in the culture media) | cell viability in contact with cells (L929 cell lines; low concentrations, 1 or 5% in culture media) | morphological analysis and cell viability after cryopreservation (L929 cell line)
1 | C[S+](C)[O-] [DMSO] | cell dead | very low viability | –
2 | OCC(O)CO [glycerol] | – | – | somewhat compromised
3 | OC[C@H]1O[C@H](O[C@H]2O[C@H](CO)[C@@H](O)[C@H](O)[C@H]2O)[C@H](O)[C@@H](O)[C@@H]1O [trehalose] | – | – | somewhat compromised
